One assay relates to CD4^+ T cells. Description: CFSE assay of CD4^+ T-cell proliferation in PBMCs of HLA-DP5^+ CP patients. The format is cell-based, human. The settings on record: PBMCs from HLA-DP5^+ CP patients. As to the method:
Peripheral blood was obtained from HLA-DP5^+ CP patients. Peripheral blood mononuclear cells (PBMCs) were isolated by a density gradient technique, using Ficoll-Paque PLUS. The research protocol for collecting and using PBMCs from allergic patients was approved by the Institutional Review Board of Kyushu University.
The CFSE assay was performed as described previously ([24]). Briefly, PBMCs (1.0 × 10^7 cells ml^−1 in PBS) were incubated for 10 min with 5 μM CFSE (Molecular Probes). Staining was terminated by adding PBS containing 5% pooled human serum, and after the cells were washed three times in PBS containing 1% pooled human serum, they were resuspended in culture medium (RPMI-1640 containing 5% pooled human serum) at 2.0 × 10^6 cells ml^−1. Stained cells (2.0 × 10^6 cells well^−1, 1 ml) were cultured in 24-well plates with medium alone, pCj1 (final concentration, 10 μg ml^−1), or NF-pCj1 (10 μg ml^−1). After 7 days, the cells treated with each antigen were pooled, washed in PBS, and stained with anti-human CD4-allophycocyanin (IgG1, clone RPA-T4, BioLegend) and 7-amino-actinomycin D (7-AAD) (BD Pharmingen). Antigen-specific, viable CD4^+ T cells were identified as 7AAD^−, CD4^+, CFSE^dim cells, and the proliferation levels of these antigen-specific CD4^+ T cells were examined in each experiment.

In assay [1] the test system is CD4^+ T-cell clones (SU3–2, SU3–3, NM-4, and NM-7). In words: Cytokine production by T-cell clones. The assay is classed as cell-based, human. The settings on record: HLA-DP5-transfected K562 cells as APCs, 24 h, Bio-Plex. As to the method:
Cloning of CD4^+ T cells was performed as described previously ([23]). A single, viable (7AAD^–), CD4^+, CFSE^dim cell was sorted into each well of a 96-well plate, which contained 100 μl of culture medium with feeder cells and cytokines, as described below. Irradiated (30 Gy) peptide-pulsed PBMCs (1.0 × 10^5) isolated from unrelated DPB1*05:01^+ donors were used as feeder cells in the cloning plates. Pooled human serum (5%) and IL-2 (100 U ml^−1) (Peprotech) were added at the indicated final concentrations to AIM-V medium (Life Technologies). Cells were fed every 7 days with fresh cytokine and peptide-pulsed PBMCs. Growing clones were identified by visual inspection, expanded into […] plates, and then tested for antigen specificity by ^3H-thymidine incorporation and cytokine production assays, using HLA-DP5 transfected K562 cells as antigen-presenting cells (APCs). […]
Fig. 4. […] HLA-restriction of T-cell clones was determined by addingvarious monoclonal antibodies (mAbs): anti-HLA-DR mAb (L243, BioLegend), anti-HLA-DQ mAb (SPV-L3, Abcam) or anti-HLA-DP mAb (B7/21, Abcam), at a final concentration of 10 μg ml^−1. […] After 24 h, culture supernatants were collected and cytokine levels were measured using the Bio-Plex system (Bio-Rad). […] The T-cell surface activation marker CD137 of TCR(SU3–3)-TG40 and TCR(NM-4)-TG40 (GFP^+ 7AAD^− gated) was analyzed by flow cytometry. […]

Turning to DKSMKVTVAFNQF [NF-pCj1], the “CD4^+ T-cell proliferation and clone establishment (in words)” value with CD4^+ T cells is “many CD4^+ T cells proliferating”. Further, the “cytokine production on stimulation (in words)” value in assay [1] was “produced IL-5, IL-10, and IL-13”.
